Seven cell lines from the supplement of paper PMC10307832 can be followed below.

Common to all, as to test: relative viability (nuclei count vs DMSO), 5 days (fraction); higher = more cells survive
Compound in assay [1]: Cc1ccccc1C(C(=O)NC1CCCCC1)N(C(=O)Cn1ccnc1C)c1cccc(F)c1 [IDH-C35] + Nc1nc2[nH]cc(CCc3ccc(C(=O)N[C@@H](CCC(=O)O)C(=O)O)cc3)c2c(=O)[nH]1 [Pemetrexed] (partner 0.2 µM)
In short, it runs like this: (§1)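 Lung cancer cell lines in 1536-well plates got either a single drug or a fixed anchor-drug dose together with five library-drug doses (not always all listed) in √10 steps, by pin tool, on the day after seeding. Nuclei were counted after 5 days, and relative viability is the treated-to-vehicle ratio of nuclei counts. Values are medians of duplicate plates.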

Compound in assay [2]: CC1=C(C(=NN1)C)CC2=C(C3=C(S2)N(C(=O)N(C3=O)C)CC(C)C)C(=O)N4C[C@@H](CO4)O + Cc1nc(NC(=O)N2CCC[C@H]2C(N)=O)sc1-c1ccnc(C(C)(C)C(F)(F)F)c1 [Alpelisib] (partner 2 µM)
In short, it runs like this: as §1

Compound in assay [3]: Cc1ccccc1C(C(=O)NC1CCCCC1)N(C(=O)Cn1ccnc1C)c1cccc(F)c1 [IDH-C35]
In a few lines: (§2)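 MetaXpress counted nuclei in 4× images of lung cancer cell lines that had been fixed, permeabilised and Hoechst-stained in one step. Before that, cells in 1536-well plates were kept overnight at 37 °C, pinned with five √10-spaced library-drug doses on vehicle-anchored plates, and cultured 5 days without medium change. Viability takes treated-well nuclei over vehicle-well nuclei and uses the median across plates. Plates were accepted only at control CV below 25% and at least one doubling.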

Compound in assay [4]: CC1=C(C(=NN1)C)CC2=C(C3=C(S2)N(C(=O)N(C3=O)C)CC(C)C)C(=O)N4C[C@@H](CO4)O
In a few lines: as §2

As for LCLC-103H, the relative viability in assay [1] (first compound 0.08 µM) was determined as 0.452; in assay [1] (first compound 0.253 µM) it was 0.49; in assay [1] (first compound 0.8 µM), 0.467; in assay [1] (first compound 2.53 µM) it was 0.48; in assay [1] (first compound 8 µM) it was 0.428; in assay [2] (first compound 0.0025 µM), 1.06. Besides, the relative viability in assay [2] (first compound 0.007906 µM) came out at 1; in assay [2] (first compound 0.025 µM), 0.959; in assay [2] (first compound 0.07906 µM), 0.957; in assay [2] (first compound 0.25 µM) it was 0.896; in assay [3] (0.08 µM), 0.968; in assay [3] (0.253 µM), 0.957. For the same cell line, the relative viability in assay [3] (0.8 µM) amounted to 0.933; in assay [3] (2.53 µM) it was 1.02; in assay [3] (8 µM) it was 0.913; in assay [4] (0.0025 µM) it was 1.1; in assay [4] (0.007906 µM), 1.06; in assay [4] (0.025 µM), 1. In addition, the relative viability in assay [4] (0.07906 µM) amounted to 0.919; in assay [4] (0.25 µM) it was 0.973.
Regarding LK-2, the relative viability was 0.259 in assay [1] (first compound 0.08 µM); 0.322 in assay [1] (first compound 0.253 µM); 0.255 in assay [1] (first compound 0.8 µM); 0.22 in assay [1] (first compound 2.53 µM); 0.202 in assay [1] (first compound 8 µM); 1.06 in assay [2] (first compound 0.0025 µM). Besides, the relative viability stood at 1.03 in assay [2] (first compound 0.007906 µM); 1.09 in assay [2] (first compound 0.025 µM); 1.05 in assay [2] (first compound 0.07906 µM); 1.08 in assay [2] (first compound 0.25 µM); 0.881 in assay [3] (0.08 µM); 0.995 in assay [3] (0.253 µM). Besides, the relative viability in assay [3] (0.8 µM) turned out to be 0.996; in assay [3] (2.53 µM), 0.998; in assay [3] (8 µM), 0.943; in assay [4] (0.0025 µM), 1; in assay [4] (0.007906 µM), 1.03; in assay [4] (0.025 µM), 0.818. Moreover, the relative viability in assay [4] (0.07906 µM) was determined as 0.804; in assay [4] (0.25 µM), 0.898.
Take LOU-NH91: the relative viability worked out at 0.422 in assay [1] (first compound 0.08 µM); 0.393 in assay [1] (first compound 0.253 µM); 0.425 in assay [1] (first compound 0.8 µM); 0.347 in assay [1] (first compound 2.53 µM); 0.361 in assay [1] (first compound 8 µM); 0.734 in assay [2] (first compound 0.0025 µM). For the same cell line, the relative viability in assay [2] (first compound 0.007906 µM) turned out to be 0.626; in assay [2] (first compound 0.025 µM), 0.791; in assay [2] (first compound 0.07906 µM), 0.799; in assay [2] (first compound 0.25 µM), 0.708; in assay [3] (0.08 µM) it was 0.945; in assay [3] (0.253 µM) it was 0.986. In addition, the relative viability came out at 0.987 in assay [3] (0.8 µM); 0.917 in assay [3] (2.53 µM); 0.96 in assay [3] (8 µM); 1 in assay [4] (0.0025 µM); 0.989 in assay [4] (0.007906 µM); 1.01 in assay [4] (0.025 µM). Also, the relative viability in assay [4] (0.07906 µM) is 1.12; in assay [4] (0.25 µM), 1.03.
Take LU99A: the relative viability in assay [1] (first compound 0.08 µM) stood at 0.191; in assay [1] (first compound 0.253 µM) it was 0.216; in assay [1] (first compound 0.8 µM), 0.173; in assay [1] (first compound 2.53 µM) it was 0.187; in assay [1] (first compound 8 µM), 0.191; in assay [2] (first compound 0.0025 µM) it was 0.559. The relative viability in assay [2] (first compound 0.007906 µM) is 0.589; in assay [2] (first compound 0.025 µM), 0.581; in assay [2] (first compound 0.07906 µM), 0.568; in assay [2] (first compound 0.25 µM), 0.611; in assay [3] (0.08 µM) it was 1.04; in assay [3] (0.253 µM), 0.992. Also, the relative viability turned out to be 0.895 in assay [3] (0.8 µM); 0.919 in assay [3] (2.53 µM); 0.964 in assay [3] (8 µM); 0.968 in assay [4] (0.0025 µM); 0.995 in assay [4] (0.007906 µM); 0.887 in assay [4] (0.025 µM). In addition, the relative viability in assay [4] (0.07906 µM) was determined as 1.03; in assay [4] (0.25 µM), 0.893.
Consider LXF-289, for which the relative viability was determined as 1.02 in assay [1] (first compound 0.08 µM); 0.857 in assay [1] (first compound 0.253 µM); 0.859 in assay [1] (first compound 0.8 µM); 0.894 in assay [1] (first compound 2.53 µM); 0.797 in assay [1] (first compound 8 µM); 1.01 in assay [2] (first compound 0.0025 µM). Also, the relative viability in assay [2] (first compound 0.007906 µM) turned out to be 1.01; in assay [2] (first compound 0.025 µM) it was 1.03; in assay [2] (first compound 0.07906 µM), 1.01; in assay [2] (first compound 0.25 µM), 1.07; in assay [3] (0.08 µM), 1.02; in assay [3] (0.253 µM), 1. The relative viability stood at 1.02 in assay [3] (0.8 µM); 0.99 in assay [3] (2.53 µM); 0.997 in assay [3] (8 µM); 1.02 in assay [4] (0.0025 µM); 1.02 in assay [4] (0.007906 µM); 0.975 in assay [4] (0.025 µM). For the same cell line, the relative viability in assay [4] (0.07906 µM) came to 0.971; in assay [4] (0.25 µM), 1.02.
With NCI-H23, the relative viability was 0.642 in assay [1] (first compound 0.08 µM); 0.848 in assay [1] (first compound 0.253 µM); 0.625 in assay [1] (first compound 0.8 µM); 0.773 in assay [1] (first compound 2.53 µM); 0.652 in assay [1] (first compound 8 µM); 0.823 in assay [2] (first compound 0.0025 µM). For the same cell line, the relative viability is 0.767 in assay [2] (first compound 0.007906 µM); 0.666 in assay [2] (first compound 0.025 µM); 0.634 in assay [2] (first compound 0.07906 µM); 0.892 in assay [2] (first compound 0.25 µM); 1 in assay [3] (0.08 µM); 1.04 in assay [3] (0.253 µM). For the same cell line, the relative viability stood at 0.95 in assay [3] (0.8 µM); 0.806 in assay [3] (2.53 µM); 0.859 in assay [3] (8 µM); 1.01 in assay [4] (0.0025 µM); 1.05 in assay [4] (0.007906 µM); 0.867 in assay [4] (0.025 µM). Moreover, the relative viability in assay [4] (0.07906 µM) was found to be 0.975; in assay [4] (0.25 µM), 1.09.
Consider NCI-H322M, for which the relative viability in assay [1] (first compound 0.08 µM) was found to be 0.622; in assay [1] (first compound 0.253 µM), 0.554; in assay [1] (first compound 0.8 µM) it was 0.644; in assay [1] (first compound 2.53 µM), 0.578; in assay [1] (first compound 8 µM), 0.608; in assay [2] (first compound 0.0025 µM), 0.769. In addition, the relative viability was 0.793 in assay [2] (first compound 0.007906 µM); 0.866 in assay [2] (first compound 0.025 µM); 0.831 in assay [2] (first compound 0.07906 µM); 0.748 in assay [2] (first compound 0.25 µM); 0.92 in assay [3] (0.08 µM); 0.973 in assay [3] (0.253 µM). In addition, the relative viability is 0.933 in assay [3] (0.8 µM); 0.963 in assay [3] (2.53 µM); 1 in assay [3] (8 µM); 0.98 in assay [4] (0.0025 µM); 1.02 in assay [4] (0.007906 µM); 0.948 in assay [4] (0.025 µM). Further, the values for the relative viability in assay [4] (0.07906 µM) and in assay [4] (0.25 µM) were 1.02 and 0.919, respectively.
